Data on 8 compounds can be found in patent publication US20250066370A1, “BICYCLIC TRIAZINE DERIVATIVES FOR THE TREATMENT OF CANCER” (DEUTSCHES KREBSFORSCHUNGSZENTRUM, priority 2022, published 2025).

SMILES strings stand for the structures. A value given as a limit tells only on which side of the number the result lay.

One test concerns the target CDK2/CyclinE (Homo sapiens (Human), UniProt P24941). Briefly: CDK2/CycE kinase assay (TR-FRET). The format is biochemical. Particulars: 2 mM ATP (high ATP); median; read-out: CDK2/CyclinE, 2 mM ATP (high ATP), IC50 - [mol/l] (median). The source says: CDK2/CycE-inhibitory activity of compounds of the present invention was quantified employing the CDK2/CycE TR-FRET assay as described in the following paragraphs.
Recombinant fusion proteins of GST and human CDK2 and of GST and human CycE, expressed in insect cells (Sf9) and purified by Glutathion-Sepharose affinity chromatography, were purchased from ProQinase GmbH (Freiburg, Germany). As substrate for the kinase reaction biotinylated peptide biotin-Ttds-YISPLKSPYKISEG (C-terminus in amid form) was used which can be purchased e.g. form the company JERINI peptide technologies (Berlin, Germany).
For the assay 50 nanoL of a 100 fold concentrated solution of the test compound in DMSO was pipetted into a black low volume 384 well microtiter plate or a black 1536 well microtiter plate (both Greiner Bio-One, Frickenhausen, Germany), 2 microL of a solution of CDK2/CycE in aqueous assay buffer [50 millimol/L Tris/HCl PH 8.0, 10 millimol/L MgCl2, 1.0 millimol/L dithiothreitol, 0.1 millimol/L sodium ortho-vanadate, 0.01% (v/v) Nonidet-P40 (Sigma)] were added and the mixture was incubated for 15 min at 22° C. to allow pre-binding of the test compounds to the enzyme before the start of the kinase reaction. Then the kinase reaction was started by the addition of 3 microL of a solution of adenosine-tri-phosphate (ATP, 3.33 millimol/L=>final conc. in the 5 microL assay volume is 2 millimol/L) and substrate (1.25 micromol/L=>final conc. in the 5 microL assay volume is 0.75 micromol/L) in assay buffer and the resulting mixture was incubated for a reaction time of 25 min at 22° C. The concentration of CDK2/CycE was adjusted depending of the activity of the enzyme lot and was chosen appropriate to have the assay in the linear range, typical concentrations were in the range of 10 ng/ml. The reaction was stopped by the addition of 3 microL of a solution of TR-FRET detection reagents (0.333 micromol/L streptavidine-XL665 [Cisbio Bioassays, Codolet, France] and 1.67 nanomol/L anti-RB (pSer807/pSer811)-antibody from BD Pharmingen [#558389] and 2 nanomol/L LANCE EU-W1024 labeled anti-mouse IgG antibody [Perkin-Elmer, product no. AD0077, as an alternative a Terbium-cryptate-labeled anti-mouse IgG antibody from Cisbio Bioassays can be used]) in an aqueous EDTA-solution (167 millimol/L EDTA, 0.2% (w/v) bovine serum albumin in 100 millimol/L HEPES pH 7.5).
The resulting mixture was incubated 1 h at 22° C. to allow the formation of complex between the phosphorylated biotinylated peptide and the detection reagents. Subsequently the amount of phosphorylated substrate was evaluated by measurement of the resonance energy transfer from the Eu-chelate to the streptavidine-XL. Therefore, the fluorescence emissions at 620 nm and 665 nm after excitation at 350 nm was measured in a TR-FRET reader, e.g. a Pherastar (BMG Labtechnologies, Offenburg, Germany) or a Viewlux (Perkin-Elmer). The ratio of the emissions at 665 nm and at […] was taken as the measure for the amount of phosphorylated substrate. The data were normalised (enzyme reaction without inhibitor=0% inhibition, all other assay components but no enzyme=100% inhibition).

The next test deals with CYCLIN K. Nature of the test: CYCLIN K nuclear protein level: immunofluorescence/high content analysis in CAL-120 cells. Format: cell-based, human. Particulars: 24 h, nuclear CCNK staining intensity, median, read-out: CYCLIN K degradation IF, DC50 - [mol/l] (median). The procedure:
CAL-120 human breast cancer cells (DSMZ ACC 459) are seeded in 1536-well microtiter plates (800 cells per well) containing 50 nanoL of compounds in Dose-Response. Control wells received DMSO or Example 4. Plates are then incubated for 24 h at 37° C. in an humidified incubator and fixed with 4% PFA for 10 min. Then immunofluorescence (IF) against CYCLIN K (ThermoFisher Scientific CCNK Antibody #PA5-85020, rabbit, 1:200 dilution) is performed using standard IF protocols. Cells are then stained with Hoechst 33342 (Life Technologies, H-1399, 0.1 microg/ml) and imaged on an automated confocal microscopy system (e.g. Perkin Elmer Opera Phenix). Nuclear and cytoplasmic intensity as well as the nuclear/cytoplasmic intensity ratio is determined by automated image analysis using custom generated scripts (MetaXpress). Data is then transferred to Genedata Screener software, normalized to DMSO and control and DC50 values (degrading concentration to achieve 50% reduction of nuclear CCNK staining intensity relative to controls) are reported.

The next test deals with MDA-MB-231-CDK12d-res. Briefly: Proliferation assay CDK12 degrader resistant MDA-MB-231. The format is cell-based, human. Particulars: for IC50: Homo sapiens, 96 h, CDK12 degrader resistant MDA-MB-231 cells, 4 days, median, read-out: Prolif-MDA MB-231-CDK12d-res, IC50 - [mol/] (median); for Ratio (Prolif-MDA MB-231-CDK12d-res IC50 / Prolif-MDA MB-231 IC50): resistant versus parental MDA-MB-231 cells. From the text: CDK12-degrader resistant cells were generated by propagation of CAL-120 human breast adenocarcinoma cells (DSMZ ACC-459) and MDA-MB-231 human breast cancer cells (ATCC HTB-26) in presence of increasing concentrations of the CDK12 degrader compound example 4 from WO 2021/116178. Initial concentrations of example 4 were 2.0E-08 M for CAL-120 cells and 4.6E-08 M for MDA-MB-231 cells, corresponding to ca. 2-fold the IC50 of inhibition of the cells in an proliferation assay. After the treated cells recovered and proliferated again the concentration of compound example 4 was increased to 3-fold IC50.
To determine the inhibitory effect of test compounds on proliferation of CAL-120-CDK12d-res, MDA-MB-231-CDK12d-res the cells were plated at a density of 4,000 cells/well in a 96-well multitier plate in 200 microL of their respective growth medium supplemented 10% fetal calf serum. After 24 hours, the cells of one plate (zero-point plate) were stained with crystal violet (see below), while the medium of the other plates was supplemented with the test substances in various concentrations (0 micromol/L, as well as in the range of 0.01-10 micromol/L; the final concentration of the solvent dimethyl sulfoxide was adjusted to 0.1%) using a Tecan HP D300 Digital Dispenser. The cells were incubated for 4 days in the presence of test substances. Cell proliferation was determined by staining the cells with crystal violet: the cells were fixed by adding 20 microL/measuring point of an 11% glutaric aldehyde solution for 15 minutes at room temperature. After three washing cycles of the fixed cells with water, the plates were dried at room temperature. The cells were stained by adding 100 microL/measuring point of a 0.1% crystal violet solution (pH 3.0). After three washing cycles of the stained cells with water, the plates were dried at room temperature. The dye was dissolved by adding 100 microL/measuring point of a 10% acetic acid solution. The extinction was determined by photometry at a wavelength of 595 nm. The change of cell number, in percent, was calculated by normalization of the measured values to the extinction values of the zero-point plate (=0%) and the extinction of the untreated (0 μM) cells (=100%). The IC50 values (inhibitory concentration at 50% of maximal effect) were determined by means of a 4 parameter fit.

Take `COc1ccc(-c2nnc(CNc3nc(N4CCOCC4)nc4c(C(F)(F)F)cnn34)[nH]2)cn1` [Example 15, N-{[5-(6-methoxypyridin-3-yl)-4H-1,2,4-triazol-3-yl]methyl}-2-(morpholin-4-yl)-8-(trifluoromethyl)pyrazolo[1,5-a][1,3,5]triazin-4-amine]: the IC50 on CDK2/CyclinE was determined as 3120 nM. The DC50 in the test with CYCLIN K is above 1000 nM.
On to `FC(F)(F)c1ccc(-c2nnc(CNc3nc(N4CCOCC4)nn4c(C(F)(F)F)cnc34)[nH]2)cn1` [Example 20, 2-(morpholin-4-yl)-7-(trifluoromethyl)-N-({5-[6-(trifluoromethyl)pyridin-3-yl]-4H-1,2,4-triazol-3-yl}methyl)imidazo[2,1-f][1,2,4]triazin-4-amine], for which the IC50 on CDK2/CyclinE is above 5710 nM. Moreover, in the test with MDA-MB-231-CDK12d-res, the IC50 is 155 nM and the “Ratio (Prolif-MDA MB-231-CDK12d-res IC50 / Prolif-MDA MB-231 IC50)” value is 2.9. The DC50 in the test with CYCLIN K is above 1000 nM.
Regarding `FC(F)(F)Oc1ccc(-c2nnc(CNc3nc(N4CCOCC4)nc4c(C(F)(F)F)cnn34)[nH]2)cc1` [Example 5, 2-(morpholin-4-yl)-N-({5-[4-(trifluoromethoxy)phenyl]-4H-1,2,4-triazol-3-yl}methyl)-8-(trifluoromethyl)pyrazolo[1,5-a][1,3,5]triazin-4-amine], the IC50 on CDK2/CyclinE was above 20000 nM. In the test on CYCLIN K, the DC50 is above 1000 nM.
On to `Cc1ccc(-c2nnc(CNc3nc(N4CCOCC4)nn4c(C(F)(F)F)cnc34)[nH]2)cn1` [Example 23, N-{[5-(6-methylpyridin-3-yl)-4H-1,2,4-triazol-3-yl]methyl}-2-(morpholin-4-yl)-7-(trifluoromethyl)imidazo[2,1-f][1,2,4]triazin-4-amine], for which the IC50 on CDK2/CyclinE is 2860 nM. In addition, the DC50 in the test with CYCLIN K stood at 124 nM.
Turning to `FC(F)(F)Oc1ccc(-c2cnc(CNc3nc(N4CCOCC4)nc4c(C(F)(F)F)cnn34)[nH]2)cc1` [Example 10, 2-(morpholin-4-yl)-N-({5-[4-(trifluoromethoxy)phenyl]-1H-imidazol-2-yl}methyl)-8-(trifluoromethyl)pyrazolo[1,5-a][1,3,5]triazin-4-amine], on CDK2/CyclinE, the IC50 is above 20000 nM. Further, in the test on MDA-MB-231-CDK12d-res, the IC50 came to 156 nM and the “Ratio (Prolif-MDA MB-231-CDK12d-res IC50 / Prolif-MDA MB-231 IC50)” value stood at 1.3. Moreover, in the test with CYCLIN K, the DC50 came to 228 nM.
Consider `FC(F)(F)Oc1ccc(-c2cnc(CNc3nc(N4CCOCC4)nn4c(C(F)(F)F)cnc34)[nH]2)cc1` [Example 8, 2-(morpholin-4-yl)-N-({5-[4-(trifluoromethoxy)phenyl]-1H-imidazol-2-yl}methyl)-7-(trifluoromethyl)imidazo[2,1-f][1,2,4]triazin-4-amine], for which the figures for the IC50 on CDK2/CyclinE and in the test with MDA-MB-231-CDK12d-res were above 20000 nM and 178 nM, respectively. Further, the “Ratio (Prolif-MDA MB-231-CDK12d-res IC50 / Prolif-MDA MB-231 IC50)” value in the test with MDA-MB-231-CDK12d-res was determined as 1.6. Moreover, the DC50 in the test with CYCLIN K was above 1000 nM.
Regarding `FC(F)(F)c1ccc(-c2nnc(CNc3nc(N4CCOCC4)nc4c(C(F)(F)F)cnn34)[nH]2)cc1` [Example 6, 2-(morpholin-4-yl)-8-(trifluoromethyl)-N-({5-[4-(trifluoromethyl)phenyl]-4H-1,2,4-triazol-3-yl}methyl)pyrazolo[1,5-a][1,3,5]triazin-4-amine], on CDK2/CyclinE, the IC50 is above 20000 nM. Moreover, in the test with CYCLIN K, the DC50 was above 1000 nM.
For the compound `FC(F)(F)c1ccc(-c2nnc(CNc3nc(N4CCOCC4)nn4c(C(F)(F)F)cnc34)[nH]2)cc1` [Example 11, 2-(morpholin-4-yl)-7-(trifluoromethyl)-N-({5-[4-(trifluoromethyl)phenyl]-4H-1,2,4-triazol-3-yl}methyl)imidazo[2,1-f][1,2,4]triazin-4-amine], the IC50 on CDK2/CyclinE is above 20000 nM. Moreover, in the test on CYCLIN K, the DC50 is above 1000 nM.
